Drawing on patent publication US9320737B2, “Substituted imidazopyridazines” (Bayer Intellectual Property GmbH, priority 2011, dated 2016), this text covers IC50 for 28 compounds.

Sequence of human full-length MKNK1 (Q9BUB5 other isoform, or with tags, fused parts or gaps T344D): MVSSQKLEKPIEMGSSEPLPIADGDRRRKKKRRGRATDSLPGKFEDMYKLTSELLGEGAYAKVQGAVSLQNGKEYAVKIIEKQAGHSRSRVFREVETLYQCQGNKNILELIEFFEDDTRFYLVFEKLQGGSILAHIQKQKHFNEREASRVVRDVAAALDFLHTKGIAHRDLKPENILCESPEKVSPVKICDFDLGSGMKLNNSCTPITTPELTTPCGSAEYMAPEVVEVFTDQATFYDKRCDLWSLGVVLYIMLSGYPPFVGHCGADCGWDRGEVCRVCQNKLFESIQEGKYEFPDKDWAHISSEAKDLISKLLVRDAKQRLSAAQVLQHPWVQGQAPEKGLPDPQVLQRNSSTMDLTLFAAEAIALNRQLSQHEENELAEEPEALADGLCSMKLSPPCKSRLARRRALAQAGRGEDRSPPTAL

The target in the experiment is human full-length MKNK1 (Homo sapiens (Human), UniProt Q9BUB5, T344D). Briefly: MKNK1 kinase assay (MKNK1 TR-FRET assay). The conditions noted are these: GST-MKNK1 (T344D), 10 μM ATP, average or median values. It counts as biochemical. The procedure:
MKNK1-inhibitory activity of compounds of the present invention was quantified employing the MKNK1 TR-FRET assay as described in the following paragraphs.
As substrate for the kinase reaction the biotinylated peptide biotin-Ahx-[…] (C-terminus in amide form) was used which can be purchased e.g. form the company Biosyntan (Berlin-Buch, Germany).
For the assay […] of a 100 fold concentrated solution of the test compound in DMSO was pipetted into a black low volume 384 well microtiter plate (Greiner Bio-One, Frickenhausen, Germany), 2 μL of a solution of MKNK1 in aqueous assay buffer [50 mM HEPES pH 7.5, 5 mM magnesium chloride, 1.0 mM dithiothreitol, 0.005% (v/v) Nonidet-P40 (Sigma)] was added and the mixture was incubated for 15 min at 22° C. to allow pre-binding of the test compounds to the enzyme before the start of the kinase reaction. Then the kinase reaction was started by the addition of 3 μL of a solution of adenosine-tri-phosphate (ATP, 16.7 μM=>final conc. in the 5 μL assay volume is 10 μM) and substrate (0.1 μM=>final conc. in the 5 μL assay volume is 0.06 μM) in assay buffer and the resulting mixture was incubated for a reaction time of 45 min at 22° C. The concentration of MKNK1 was adjusted depending of the activity of the enzyme lot and was chosen appropriate to have the assay in the linear range, typical concentrations were in the range of 0.05 μg/ml. The reaction was stopped by the addition of 5 μL of a solution of TR-FRET detection reagents (5 nM streptavidine-XL665 [Cisbio Bioassays, Codolet, France] and 1 nM anti-ribosomal protein S6 (pSer236)-antibody from Invitrogen [#44921G] and 1 nM LANCE EU-W1024 labeled ProteinG [Perkin-Elmer, product no. AD0071]) in an aqueous EDTA-solution (100 mM EDTA, 0.1% (w/v) bovine serum albumin in 50 mM HEPES pH 7.5).
The resulting mixture was incubated for 1 h at 22° C. to allow the formation of complex between the phosphorylated biotinylated peptide and the detection reagents. Subsequently the amount of phosphorylated substrate was evaluated by measurement of the resonance energy transfer from the Eu-chelate to the streptavidine-XL. Therefore, the fluorescence emissions at 620 nm and 665 nm after excitation at 350 nm were measured in a TR-FRET reader, e.g. a Rubystar (BMG Labtechnologies, Offenburg, Germany) or a Viewlux (Perkin-Elmer). The ratio of the emissions at 665 nm and at 622 nm was taken as the measure for the amount of phosphorylated substrate.
In general terms: Time-resolved FRET reads energy transfer from a long-lived donor to a nearby acceptor.
The term IC50 denotes the point on the concentration scale where inhibition reaches its midpoint. As to `COc1cccc2oc(-c3cnc4ccc(OCCCSC)nn34)cc12` [Example I.1, 3-(4-Methoxy-1-benzofuran-2-yl)-6-[3-(methylsulfanyl)propoxy]imidazo[1,2-b]-pyridazine], the IC50 is 21 nM.

`CSCCCOc1ccc2ncc(-c3cc4ccccc4o3)n2n1` [Example I.2, 3-(1-Benzofuran-2-yl)-6-[3-(methylsulfanyl)propoxy]imidazo[1,2-b]pyridazine] returned an IC50 of 11 nM. Against the preceding compound, the IC50 is about 1.9-fold lower.

Consider `CSCCCCOc1ccc2ncc(-c3cc4ccccc4o3)n2n1` [Example I.3, 3-(1-Benzofuran-2-yl)-6-[4-(methylsulfanyl)butoxy]imidazo[1,2-b]pyridazine], for which the midpoint of inhibition, the IC50, lay at 27 nM.

The compound `CSCCOc1ccc2ncc(-c3cc4ccccc4o3)n2n1` [Example I.4, 3-(1-Benzofuran-2-yl)-6-[2-(methylsulfanyl)ethoxy]imidazo[1,2-b]pyridazine] had a concentration for half-maximal inhibition (IC50) of 16 nM. This IC50 lies about 1.7-fold lower than the previous one.

`COc1cccc2oc(-c3cnc4ccc(OCCC[S+](C)[O-])nn34)cc12` (stereo not shown) [Example II.1, 3-(4-Methoxy-1-benzofuran-2-yl)-6-[3-(methylsulfinyl)propoxy]imidazo[1,2-b]pyridazine] gave an IC50 of 2 nM.

Turning to `C[S+]([O-])CCCOc1ccc2ncc(-c3cc4ccccc4o3)n2n1` (stereo not shown) [Example II.2, 3-(1-Benzofuran-2-yl)-6-[3-(methylsulfinyl)propoxy]imidazo[1,2-b]pyridazine], the half-maximal inhibitory concentration (IC50) is 4 nM. Against the preceding compound, the IC50 is about 2-fold higher.

On to `C[S+]([O-])CCCCOc1ccc2ncc(-c3cc4ccccc4o3)n2n1` (stereo not shown) [Example II.3, 3-(1-Benzofuran-2-yl)-6-[4-(methylsulfinyl)butoxy]imidazo[1,2-b]pyridazine], for which half-maximal inhibition (IC50) required 5 nM.

In the case of `CS(=O)(=O)CCCOc1ccc2ncc(-c3cc4ccccc4o3)n2n1` [Example III.1, 3-(1-Benzofuran-2-yl)-6-[3-(methylsulfonyl)propoxy]imidazo[1,2-b]pyridazine], half-maximal inhibition (IC50) required 5 nM.

In turn, `COc1ccc2oc(-c3cnc4ccc(OCCCS(C)(=O)=O)nn34)cc2c1` [Example III.2, 3-(5-Methoxy-1-benzofuran-2-yl)-6-[3-(methylsulfonyl)propoxy]imidazo[1,2-b]pyridazine] came in with an IC50 of 5 nM.

The compound `COc1cccc2oc(-c3cnc4ccc(OCCCS(C)(=O)=O)nn34)cc12` [Example III.3, 3-(4-Methoxy-1-benzofuran-2-yl)-6-[3-(methylsulfonyl)propoxy]imidazo[1,2-b]pyridazine] registered an IC50 of 2 nM.

Regarding `CS(=O)(=O)CCCOc1ccc2ncc(-c3cc4cc(F)ccc4o3)n2n1` [Example III.4, 3-(5-Fluoro-1-benzofuran-2-yl)-6-[3-(methylsulfonyl)propoxy]imidazo[1,2-b]pyridazine], the IC50 worked out at 7 nM.

For the compound `CS(=O)(=O)CCCOc1ccc2ncc(-c3cc4cc(Cl)ccc4o3)n2n1` [Example III.5, 3-(5-Chloro-1-benzofuran-2-yl)-6-[3-(methylsulfonyl)propoxy]imidazo[1,2-b]pyridazine], the midpoint of inhibition, the IC50, lay at 15 nM.

For `CS(=O)(=O)CCCOc1ccc2ncc(-c3cc4cccc(F)c4o3)n2n1` [Example III.6, 3-(7-Fluoro-1-benzofuran-2-yl)-6-[3-(methylsulfonyl)propoxy]imidazo[1,2-b]pyridazine], the IC50 turned out to be 48 nM.

On to `Cc1c(-c2cnc3ccc(OCCCS(C)(=O)=O)nn23)oc2ccccc12` [Example III.7, 3-(3-Methyl-1-benzofuran-2-yl)-6-[3-(methylsulfonyl)propoxy]imidazo[1,2-b]pyridazine], for which the concentration for half-maximal inhibition (IC50) is 61 nM. The IC50 values of the last two compounds are within 1.5-fold of each other.

As for `Cc1cccc2cc(-c3cnc4ccc(OCCCS(C)(=O)=O)nn34)oc12` [Example III.8, 3-(7-Methyl-1-benzofuran-2-yl)-6-[3-(methylsulfonyl)propoxy]imidazo[1,2-b]pyridazine], the IC50 worked out at 70 nM.

In turn, `CS(=O)(=O)CCCOc1ccc2ncc(-c3cc4c(F)cccc4o3)n2n1` [Example III.9, 3-(4-Fluoro-1-benzofuran-2-yl)-6-[3-(methylsulfonyl)propoxy]imidazo[1,2-b]pyridazine] showed a half-maximal inhibitory concentration (IC50) of 17 nM.

For the compound `Cc1cc2ncc(-c3cc4ccccc4o3)n2nc1OCCCS(C)(=O)=O` [Example III.10, 3-(1-Benzofuran-2-yl)-7-methyl-6-[3-(methylsulfonyl)propoxy]imidazo[1,2-b]-pyridazine], it took 11 nM to reach half-maximal inhibition (IC50). Against the preceding compound, the IC50 is about 1.5-fold lower.

`CS(=O)(=O)CCCOc1nn2c(-c3cc4ccccc4o3)cnc2cc1-c1ccccc1` [Example III.11, 3-(1-Benzofuran-2-yl)-6-[3-(methylsulfonyl)propoxy]-7-phenylimidazo[1,2-b]-pyridazine] came in with an IC50 of 17 nM.

`COc1nccc2oc(-c3cnc4ccc(OCCCS(C)(=O)=O)nn34)cc12` [Example III.12, 3-(4-Methoxyfuro[3,2-c]pyridin-2-yl)-6-[3-(methylsulfonyl)propoxy]-imidazo-[1,2-b]pyridazine] showed an IC50 of 12 nM.

Compound `CS(=O)(=O)CCCOc1ccc2ncc(-c3cc4ncccc4o3)n2n1` [Example III.14, 3-(Furo[3,2-b]pyridin-2-yl)-6-[3-(methylsulfonyl)propoxy]imidazo[1,2-b]pyridazine] returned an IC50 of 60 nM.

`COc1cccc2oc(-c3cnc4ccc(OCCCS(C)(=O)=NC(=O)C(F)(F)F)nn34)cc12` (stereo not shown) [Example IV.1, 2,2,2-Trifluoro-N-[(3-{[3-(4-methoxy-1-benzofuran-2-yl)imidazo[1,2-b]pyridazin-6-yl]oxy}propyl)(methyl)oxido-lambda^6-sulfanylidene]acetamide] registered an IC50 of 9 nM.

The compound `CS(=N)(=O)CCCOc1ccc2ncc(-c3cc4ccccc4o3)n2n1` (stereo not shown) [Example IV.4, 3-(1-Benzofuran-2-yl)-6-[3-(S-methylsulfonimidoyl)propoxy]imidazo[1,2-b]pyridazine] showed a concentration for half-maximal inhibition (IC50) of 4 nM.

As for `CS(=O)(CCCCOc1ccc2ncc(-c3cc4ccccc4o3)n2n1)=NC(=O)C(F)(F)F` (stereo not shown) [Example IV.5, N-[(4-{[3-(1-Benzofuran-2-yl)imidazo[1,2-b]pyridazin-6-yl]oxy}butyl)(methyl)oxido-lambda^6-sulfanylidene]-2,2,2-trifluoroacetamide], half-maximal inhibition (IC50) was put at 15 nM.

Compound `CS(=O)(CCOc1ccc2ncc(-c3cc4ccccc4o3)n2n1)=NC(=O)C(F)(F)F` (stereo not shown) [Example IV.7, N-[(2-{[3-(1-Benzofuran-2-yl)imidazo[1,2-b]pyridazin-6-yl]oxy}ethyl)(methyl)oxido-lambda^6-sulfanylidene]-2,2,2-trifluoroacetamide] gave a half-maximal inhibitory concentration (IC50) of 47 nM.

Compound `CS(=O)(CCCOc1ccc2ncc(-c3cc4ccccc4o3)n2n1)=NC#N` (stereo not shown) [Example IV.8, [(3-{[3-(1-Benzofuran-2-yl)imidazo[1,2-b]pyridazin-6-yl]oxy}propyl)(methyl)oxido-lambda^6-sulfanylidene]cyanamide] gave an IC50 of 7 nM.

In turn, `COc1nccc2oc(-c3cnc4ccc(OCCCS(C)(=O)=NC#N)nn34)cc12` (stereo not shown) [Example IV.9, [(3-{[3-(4-Methoxyfuro[3,2-c]pyridin-2-yl)imidazo[1,2-b]pyridazin-6-yl]oxy}propyl)(methyl)oxido-lambda^6-sulfanylidene]cyanamide] registered an IC50 of 9 nM. The IC50 values of the last two compounds are within 1.5-fold of each other.

`COc1nccc2oc(-c3cnc4ccc(OCCCS(C)(=N)=O)nn34)cc12` (stereo not shown) [Example IV.10, 3-(4-Methoxyfuro[3,2-c]pyridin-2-yl)-6-[3-(S-methylsulfonimidoyl)propoxy]-imidazo[1,2-b]pyridazine] displayed an IC50 of 9 nM.

In turn, `CS(=O)(=O)CCCOc1ccc2ncc(-c3cc4cnccc4o3)n2n1` [III.13, 3-(Furo[3,2-c]pyridin-2-yl)-6-[3-(methylsulfonyl)propoxy]imidazo[1,2-b]-pyridazine] yielded an IC50 of 28 nM.
